Where two headings read alike, the source gives them in different places.
Columns and labels:
[1] = system: 3T3; conditions: 3T3, 24 hours
Experimental: (§1) Potential apoptosis and necrosis induction was studied in the cell lines using Annexin V conjugated with Alexa Fluor 488 (Molecular Probes) and Propidium Iodide (PI, Sigma) fluorochromes by Flow Cytometry, to measure early apoptotic event and necrosis respectively, after exposure to different concentrations of sulforaphane or sulforaphane-loaded nanoemulsion suspensions. HaCaT, and 3T3 cells were seeded in 24 well plates at a density of 100.000 cells/well. 24 hours later cells were exposed to test items for further 24 hours. After the exposure, 5 µL of the annexin V conjugates were added to each 100 µL of cell suspension replicate (minimum of 10.000 cell/100µL) and incubated at room temperature for 15 minutes. After incubation, cells were washed and submitted to flow cytometry acquisition. Immediately before acquisition, the stained cells were contrasted with PI (5 µg/ml) to detect necrotic cells and analysed by Cytomics FC500 Flow Cytometer. Three independent experiments and at least three replicates for each experimental point were carried out. Each experiment included a negative control (untreated cells). […]

[2] = system: HaCaT; conditions: 24 hours
Experimental: as §1

[3] = 6.25 mM sulforaphane (6.26 printed for the nanoemulsion)

C[S+]([O-])CCCCN=C=S (racemic) [Sulforaphane, D,L-Sulforaphane]
AnnexinV (percentage of positive cells) ([1]; 3.125 mM sulforaphane): 7.73±1.23%
AnnexinV+PI (percentage of positive cells) ([1]; 3.125 mM sulforaphane): 1.93±0.15%
C neg (percentage of cells) ([1]; 3.125 mM sulforaphane): 86.23±1.77%
PI (percentage of positive cells) ([1]; 3.125 mM sulforaphane): 4.10±2.38%
AnnexinV (percentage of positive cells) [1, 3]: 7.83±1.50%
AnnexinV+PI (percentage of positive cells) [1, 3]: 2.03±0.46%
C neg (percentage of cells) [1, 3]: 86.97±1.68%
PI (percentage of positive cells) [1, 3]: 3.17±0.76%
AnnexinV (percentage of positive cells) ([1]; 12.5 mM sulforaphane): 11.07±1.59%
AnnexinV+PI (percentage of positive cells) ([1]; 12.5 mM sulforaphane): 3.07±0.67%
C neg (percentage of cells) ([1]; 12.5 mM sulforaphane): 81.57±3.40%
PI (percentage of positive cells) ([1]; 12.5 mM sulforaphane): 4.30±0.54%
AnnexinV (percentage of positive cells) ([2]; 3.125 mM sulforaphane): 5.90±0.98%
AnnexinV+PI (percentage of positive cells) ([2]; 3.125 mM sulforaphane): 1.27±0.06%
C neg (percentage of cells) ([2]; 3.125 mM sulforaphane): 90.97±1.77%
PI (percentage of positive cells) ([2]; 3.125 mM sulforaphane): 1.87±0.81%
AnnexinV (percentage of positive cells) [2, 3]: 7.33±1.82%
AnnexinV+PI (percentage of positive cells) [2, 3]: 1.83±0.15%
C neg (percentage of cells) [2, 3]: 88.50±1.65%
PI (percentage of positive cells) [2, 3]: 2.33±0.61%
AnnexinV (percentage of positive cells) ([2]; 12.5 mM sulforaphane): 7.17±1.74%
AnnexinV+PI (percentage of positive cells) ([2]; 12.5 mM sulforaphane): 2.03±0.35%
C neg (percentage of cells) ([2]; 12.5 mM sulforaphane): 88.10±3.40%
PI (percentage of positive cells) ([2]; 12.5 mM sulforaphane): 2.70±0.30%
